Results reported in paper PMC9403717, “Ruthenium complexes show potent inhibition of AKR1C1, AKR1C2, and AKR1C3 enzymes and anti-proliferative action against chemoresistant ovarian cancer cell line” (Frontiers in Pharmacology, 2022).
“And” between values parts separate entries of the source, which are not always exact repeats. Equal entries are not always repeated.

How the values were obtained:
Format in all cases: cell-based, human
[1] = tested on: COV362 cells; test: Cell proliferation assay (alamarBlue), chemoresistant ovarian cancer cell line COV362; settings: for IC50: 48 h incubation
Method: (§1) The cell line COV362 (CVCL_2,420) was originally established from a high-grade ovarian serous adenocarcinoma from a metastatic site in the pleural effusion ([van den Berg-Bakker et al., 1993]) and was purchased from ECACC (ECACC 07071910) as p37 on 13 October 2017. The growth medium for COV362 cells was DMEM (D5546; Sigma–Aldrich GmbH), with 10% FBS (F9665; Sigma–Aldrich GmbH) and 2 mM L-glutamine (G7513; Sigma–Aldrich GmbH). COV362 cells in passages p37 + 12 to p37 + 17 were used in this study and seeded at a concentration of 3.5 cells/ml × 10^4 cells/ml for proliferation studies and at a concentration of 5.3 × 10^5/ml for migration studies. The cell line OVCAR-4 (CVCL_1,627) is a high-grade serous ovarian adenocarcinoma cell line established from a patient refractory to cisplatin ([Johnson et al., 1997]). The cell line was purchased from Merck on 19 March 2021. The growth medium for OVCAR-4 cells was RPMI-1640 (Sigma R5586) supplemented with 2 mM glutamine (G7513; Sigma–Aldrich GmbH), 10% FBS (F9665; Sigma–Aldrich GmbH), 0.25 μg/ml insulin (I9278; Sigma–Aldrich GmbH). OVCAR-4 cells in passages p+6 to p+15 were used in this study and seeded at a concentration of 6 cells/ml × 10^4 cells/ml. The control cell line HIO80 (CVCL_E274) was obtained from Andrew K. Godwin (University of Kansas Medical Center, Kansas, United States) on 20 October 2017 as p+72. It was originally established from ovarian surface epithelium ([Yang et al., 2004]). HIO80 cells were grown in RPMI medium (R5886, Sigma–Aldrich GmbH) supplemented with 10% FBS (F9665; Sigma–Aldrich GmbH), 2 mm L-glutamine (G7513; Sigma–Aldrich GmbH) and 6.6 µg/ml insulin (I9278; Sigma–Aldrich GmbH). HIO80 cells in passages p72 + 8 to p72 + 19 were used in this study and seeded at a concentration of 2 × 10^4 cells/mL. HIO80 in passage +10 was authenticated by short tandem repeats (STR) profiling performed by ATCC on 22 February 2019. Cells were grown in a humidified atmosphere containing 5% CO2 at 37°C. All cell lines were negative for mycoplasma infection which was periodically tested using MycoAlert^TM mycoplasma detection kit (Lonza, Basel, Switzerland).
(§2) The effect of ruthenium compounds on the proliferation of ovarian cancer cell lines COV362 and OVCAR-4 and the control cell line HIO80 was analyzed using the cell proliferation reagent alamarBlue HS (A50101; Thermo Fisher Scientific) following the manufacturer’s instructions.
(§3) Cells were seeded in 96-well plates in 100 µL of medium and allowed to adhere and grow for 24 h. […] Cisplatin and carboplatin purchased from Sigma–Aldrich GmbH (cat. number: PHR1624, lot: LRAB7778) and (cat. number: C2538, lot: MKCK1243) were dissolved in sterile water. Working solutions were prepared by a serial dilution of stock solutions with a culture medium. After the initial incubation, cells were treated with ruthenium complexes, cisplatin, and carboplatin. A range of final concentrations between 0.001 and 300 µM were used for ruthenium complexes and cisplatin, and between 0.001 µM and 1 mM for carboplatin. After 48 h of incubation, plates were incubated with 20 µL of alamarBlue. After 4 h absorbance was measured with a BioTek microplate spectrophotometer at 570 nm, with the reference wavelength set at 600 nm. First, the background value of a well containing the active substance without cells was subtracted, then the average values for duplicates/triplicates were calculated. The absorbance of the well containing only untreated cells was used as a normalization control. The half-maximal […] concentration (IC50) was determined for all ruthenium complexes with a growth-inhibiting effect on cells by constructing a dose-response curve (Graph Pad Prism, Version 8.0).

[2] = tested on: HIO80 cells; test: Cell proliferation assay (alamarBlue), control cell line HIO80; settings: 48 h incubation
Method: as §1, §2, §3

[3] = tested on: OVCAR-4 cells; test: Cell proliferation assay (alamarBlue), OVCAR-4; settings: for IC50: OVCAR-4, 48 h incubation
Method: as §1, §2, §3

[4] = tested on: COV362 cells; test: Cell migration assay (Ibidi culture inserts), COV362; settings: 100 μM; for effect on cell migration (in words): 24 and 48 h
Method: Cell migration assay was performed using Ibidi® three-well culture inserts. The inserts were placed in six-well plates. In total, 70 µL of cell suspension was seeded in the inserts and allowed to adhere and grow for 24 h. When the cells formed a confluent monolayer, the inserts were carefully removed and the cells were washed two times with DPBS. Cells were treated with 100 μM (final concentration) of compounds 8, 9, cisplatin, and carboplatin in 2 ml of growth medium. Cells treated with a medium containing the same volume of sterile water or DMSO were used as the controls. Images of cell gaps were taken with Axio Scope A1 Polarized Light Microscope (Zeiss) at the time of treatment, 24 and 48 h after, and analyzed using ImageJ software.

CN(C)c1ccc(C(=CC(=O)C(F)(F)F)[O][Ru][Cl])cc1.Cc1ccc(C(C)C)cc1 [Compound 3, (η^6-p-cymene)chlorido(4,4,4-trifluoro-1-(4-(dimethylamino)phenyl)-1,3-butandionato)ruthenium(II)]
IC50 [1]: < 100 µM and 90.2 µM
IC50 [2]: 34.7 µM

C1N2CN3CN1CP(C2)C3.Cc1ccc(C(C)C)cc1.F[P-](F)(F)(F)(F)F.[O-]c1c(I)cc(Cl)c2cccnc12.[Ru+2] [Compound 8]
fold higher IC50 value on OVCAR-4 compared to COV362 [3]: 2.6 fold
IC50 [3]: 97.5 µM
IC50 [1]: 38 µM
effect on cell migration (in words) [4]: inhibited cell migration similarly to cisplatin
IC50 [2]: 32.5 µM

Cc1ccc(C(C)C)cc1.O=C(C=C([O][Ru][Cl])c1ccc(I)cc1)C(F)(F)F [Compound 1]
IC50 [1]: 96.6 µM
IC50 [2]: 41.9 µM

C1N2CN3CN1CP(C2)C3.Cc1ccc(C(C)C)cc1.F[P-](F)(F)(F)(F)F.O=C(C=C([O][Ru+])c1ccc(I)cc1)C(F)(F)F [Compound 2]
IC50 [1]: 141 µM
IC50 [2]: 92 µM

C1N2CN3CN1CP(C2)C3.Cc1ccc(C(C)C)cc1.F[P-](F)(F)(F)(F)F.O=[N+]([O-])c1ccc([O][Ru+])c2ncccc12 [Compound 10, (η ^6-p-cymene)(nitroxolinato)(pta)ruthenium(II) hexafluorophosphate]
effect on proliferation (in words) [1]: inactive
IC50 [1]: > 200 µM
IC50 [2]: > 200 µM

C1N2CN3CN1CP(C2)C3.Cc1ccc(C(C)C)cc1.F[P-](F)(F)(F)(F)F.O=C(C=C([O][Ru+])c1ccc2c(c1)OCO2)C(F)(F)F [Compound 6]
IC50 [1]: 152 µM
IC50 [2]: 187 µM

Cc1ccc(C(C)C)cc1.O=C(C=C([O][Ru][Cl])c1ccc2c(c1)OCO2)C(F)(F)F [Compound 5]
IC50 [1]: 136 µM
IC50 [2]: 60.5 µM

Cc1ccc(C(C)C)cc1.[Cl-].[O-]c1c(I)cc(Cl)c2cccnc12.[Ru+2] [Compound 7]
fold higher IC50 value on OVCAR-4 compared to COV362 [3]: 1.6 fold
IC50 [3]: 28.1 µM
IC50 [1]: 17.7 µM
IC50 [2]: 14.3 µM

Cc1ccc(C(C)C)cc1.O=[N+]([O-])c1ccc([O][Ru][Cl])c2ncccc12 [Compound 9, (η ^6-p-Cymene) (nitroxolinato)chloridoruthenium (II)]
fold lower IC50 value on OVCAR-4 compared to COV362 [3]: 1.5 fold
IC50 [3]: 14.4 µM
IC50 [1]: 21.5 µM
effect on cell migration (in words) [4]: prevented migration
cytotoxic effect in migration assay (in words) ([4]; after 48 h incubation): cytotoxic effect
IC50 [2]: 12.8 µM
